Here are results for 33 compounds from patent US9204653B2, “5-fluoro pyrimidine derivatives” (DOW AGROSCIENCES LLC, priority 2008, dated 2015).

Where two headings read alike, the source gives them in different places.

This assay has as its system Mycosphaerella graminicola; Anamorph: Septoria tritici; Bayer Code SEPTTR. The assay can be described thus: Leaf blotch of wheat, foliar fungicide treatment, one day protectant (1DP) or three day curative (3DC). The format is in vivo, Septoria tritici on wheat plants (variety Yuma). The settings on record: Zymoseptoria tritici; for pest or weed control at 50 ppm / pest or weed control at 200 ppm: % disease control rating.

The mark [1] stands for this setting: 24 h, one day protectant (1DP), 25 ppm, rating of percent disease control, read-out: SETTTR 1DP 25 ppm.
Setting [2] is: 24 h, one day protectant (1DP), rating of percent disease control, read-out: SEPTTR 1DP 100 ppm.
Setting [3] is: 72 h, three day curative (3DC), 25 ppm, rating of percent disease control, read-out: SEPTTR 3DC 25 ppm.
[4] abbreviates: 72 h, three day curative (3DC), rating of percent disease control, read-out: SEPTTR 3DC 100 ppm.
Setting [5] is: 24 h, one day protectant (1DP), 25 ppm, percent disease control rating, read-out: SETTTR 1DP 25 ppm.
Setting [6] is: 24 h, one day protectant (1DP), percent disease control rating, read-out: SEPTTR 1DP 100 ppm.
The mark [7] stands for this setting: 72 h, three day curative (3DC), 25 ppm, percent disease control rating, read-out: SEPTTR 3DC 25 ppm.
Setting [8] is: 72 h, three day curative (3DC), percent disease control rating, read-out: SEPTTR 3DC 100 ppm.
Where [9] appears, read: 24 h, one day protectant, 25 ppm, rating of percent disease control, read-out: SETTTR 1DP 25 ppm.
Where [10] appears, read: 24 h, one day protectant, rating of percent disease control, read-out: SEPTTR 1DP 100 ppm.
Setting [11] is: 72 h, three day curative, 25 ppm, rating of percent disease control, read-out: SEPTTR 3DC 25 ppm.
[12] abbreviates: 72 h, three day curative, rating of percent disease control, read-out: SEPTTR 3DC 100 ppm.
[13] abbreviates: 24 h, one day protectant (1DP), 25 ppm (first 1DP column), percent control rating, read-out: SETTTR 1DP 25 ppm.
Where [14] appears, read: 24 h, one day protectant (1DP), 25 ppm as printed (second 1DP column), percent control rating, read-out: SETTTR 1DP 25 ppm.
Setting [15] is: 72 h, three day curative (3DC), 25 ppm, percent control rating, read-out: SEPTTR 3DC 25 ppm.
Where [16] appears, read: 72 h, three day curative (3DC), percent control rating, read-out: SEPTTR 3DC 100 ppm.

For `Cn1ccc2cc(COc3ncc(F)c(N)n3)ccc21` [Compound 511], the pest or weed control at 25 ppm was in the range of 51 to 75% under setting [1] and 26 to 50% under setting [3]. The pest or weed control at 100 ppm under setting [2] was in the range of 51 to 75% and the pest or weed control at 100 ppm under setting [4] lay in the range of 26 to 50%.

As to `Fc1ccccc1CNc1nc(OCc2ccc(Cl)cc2Cl)ncc1F` [Compound 863], under “24 h, one day protectant”, the pest or weed control at 50 ppm fell in the range of 76 to 100% and the pest or weed control at 200 ppm is 76 to 100%.

For the compound `CCCNC(=O)Nc1nc(OCc2ccc(OC)c(F)c2)ncc1F` [Compound 170], the pest or weed control at 25 ppm was in the range of 0 to 25% under setting [5] and 0 to 25% under setting [7]. For the same compound, the pest or weed control at 100 ppm under setting [6] is 0 to 25% and the pest or weed control at 100 ppm under setting [8] is 0 to 25%.

For the compound `COc1ccc(COc2ncc(F)c(/N=C/N3CCOCC3)n2)cc1F` [Compound 241], the pest or weed control at 25 ppm under setting [1] lay within 76 to 100% and the pest or weed control at 25 ppm under setting [3] lay within 76 to 100%. The pest or weed control at 100 ppm was 76 to 100% under setting [2] and 51 to 75% under setting [4].

In the case of `COc1cccc(COc2ncc(F)c(NC(=O)c3ccccc3)n2)c1` [Compound 191], the pest or weed control at 25 ppm is, setting by setting: under setting [1], 76 to 100%; under setting [3], 76 to 100%. The pest or weed control at 100 ppm runs as follows: under setting [2], 76 to 100%; under setting [4], 76 to 100%.

For `CCCCCCOc1ncc(F)c(NC(C)=O)n1` [Compound 695], the pest or weed control at 25 ppm fell in the range of 0 to 25% under setting [9] and 0 to 25% under setting [11]. Moreover, the pest or weed control at 100 ppm is 76 to 100% under setting [10] and 26 to 50% under setting [12].

Regarding `C=CCOc1ncc(F)c(NNC(=O)c2ccncc2)n1` [Compound 1124], the pest or weed control at 25 ppm is 0 to 25% under setting [13], 0 to 25% under setting [14] and 0 to 25% under setting [15]. For the same compound, the pest or weed control at 100 ppm under setting [16] was in the range of 0 to 25%.

Regarding `COc1ncc(F)c(N/N=C(\C)c2cc3ccccc3o2)n1` [Compound 1019], the pest or weed control at 25 ppm is, setting by setting: under setting [13], 26 to 50%; under setting [14], 26 to 50%; under setting [15], 0 to 25%. For the same compound, the pest or weed control at 100 ppm under setting [16] fell in the range of 0 to 25%.

In the case of `O=C(NCc1ccccc1F)Nc1nc(OCc2cccs2)ncc1F` [Compound 116], the pest or weed control at 25 ppm lay in the range of 0 to 25% under setting [5] and 0 to 25% under setting [7]. Also, the pest or weed control at 100 ppm by setting is: under setting [6], 0 to 25%; under setting [8], 0 to 25%.

Turning to `Fc1ccc(COc2ncc(F)c(N/N=C/c3ccccc3Cl)n2)cc1` [Compound 700], the pest or weed control at 25 ppm runs as follows: under setting [9], 0 to 25%; under setting [11], 26 to 50%. The pest or weed control at 100 ppm is, setting by setting: under setting [10], 51 to 75%; under setting [12], 76 to 100%.

Take `Nc1nc(OCc2cccc3ccccc23)ncc1F` [Compound 120]: the pest or weed control at 25 ppm was 76 to 100% under setting [5] and 76 to 100% under setting [7]. The pest or weed control at 100 ppm lay within 76 to 100% under setting [6] and 76 to 100% under setting [8].

With `CCOCc1cccc(COc2ncc(F)c(N)n2)c1` [Compound 543], the pest or weed control at 25 ppm lay within 76 to 100% under setting [1] and 76 to 100% under setting [3]. In addition, the pest or weed control at 100 ppm under setting [2] was in the range of 76 to 100% and the pest or weed control at 100 ppm under setting [4] lay in the range of 76 to 100%.

In the case of `CCOc1ccccc1COc1ncc(F)c(N)n1` [Compound 328], the pest or weed control at 25 ppm fell in the range of 76 to 100% under setting [1] and 76 to 100% under setting [3]. The pest or weed control at 100 ppm under setting [2] was 76 to 100% and the pest or weed control at 100 ppm under setting [4] was in the range of 76 to 100%.

As to `Fc1ccccc1COc1ncc(F)c(NC2CC2)n1` [Compound 852], under “24 h, one day protectant”, the pest or weed control at 50 ppm is 51 to 75% and the pest or weed control at 200 ppm fell in the range of 76 to 100%.

Consider `Cc1cccc(COc2ncc(F)c(N)n2)n1` [Compound 78], for which the pest or weed control at 25 ppm is 76 to 100% under setting [5] and 76 to 100% under setting [7]. For the same compound, the pest or weed control at 100 ppm runs as follows: under setting [6], 76 to 100%; under setting [8], 76 to 100%.

As for `CN(C)/C=N/c1nc(OS(C)(=O)=O)ncc1F` [Compound 131], the pest or weed control at 25 ppm lay in the range of 26 to 50% under setting [5] and 26 to 50% under setting [7]. The pest or weed control at 100 ppm fell in the range of 51 to 75% under setting [6] and 76 to 100% under setting [8].

Take `CCCNC(=O)Nc1nc(O)ncc1F` [Compound 980]: the pest or weed control at 25 ppm fell in the range of 0 to 25% under setting [13], 0 to 25% under setting [14] and 0 to 25% under setting [15]. Moreover, the pest or weed control at 100 ppm under setting [16] lay in the range of 0 to 25%.

As to `Cc1ccc(OC(=O)Oc2ncc(F)c(/N=C/N(C)C)n2)cc1` [Compound 610], the pest or weed control at 25 ppm under setting [9] lay within 76 to 100% and the pest or weed control at 25 ppm under setting [11] is 26 to 50%. In addition, the pest or weed control at 100 ppm lay in the range of 76 to 100% under setting [10] and 51 to 75% under setting [12].

With `Fc1cnc(OCc2ccccc2Cl)nc1NC1CC1` [Compound 807], the pest or weed control at 200 ppm (24 h, one day protectant) fell in the range of 76 to 100%.

As to `Nc1nc(OCc2cccc(I)c2)ncc1F` [Compound 212], the pest or weed control at 25 ppm is, setting by setting: under setting [1], 76 to 100%; under setting [3], 76 to 100%. Besides, the pest or weed control at 100 ppm was in the range of 76 to 100% under setting [2] and 76 to 100% under setting [4].

As to `Nc1nc(OCC2CC2(F)F)ncc1F` (stereo not drawn) [Compound 509], the pest or weed control at 25 ppm reads like this: under setting [1], 0 to 25%; under setting [3], 26 to 50%. Moreover, the pest or weed control at 100 ppm lay within 0 to 25% under setting [2] and 0 to 25% under setting [4].

For the setting “24 h, one day protectant”, `Cc1cnc(CNc2nc(OCCc3ccccc3)ncc2F)cn1` [Compound 934] yielded a pest or weed control at 50 ppm of 0 to 25% and a pest or weed control at 200 ppm of 26 to 50%.

On to `CN(O)c1nc(OCc2ccc(F)cc2)ncc1F` [Compound 487], for which the pest or weed control at 25 ppm by setting is: under setting [1], 0 to 25%; under setting [3], 0 to 25%. The pest or weed control at 100 ppm under setting [2] lay within 76 to 100% and the pest or weed control at 100 ppm under setting [4] was 76 to 100%.

`Nc1nc(OCc2ccco2)ncc1F` [Compound 409]: the pest or weed control at 25 ppm is, setting by setting: under setting [1], 76 to 100%; under setting [3], 76 to 100%. For the same compound, the pest or weed control at 100 ppm by setting is: under setting [2], 76 to 100%; under setting [4], 76 to 100%.

As to `CC(Oc1ncc(F)c(N)n1)c1ccc(C(C)(C)C)cc1Cl` (stereo not drawn) [Compound 173], the pest or weed control at 25 ppm by setting is: under setting [5], 51 to 75%; under setting [7], 0 to 25%. Also, the pest or weed control at 100 ppm is, setting by setting: under setting [6], 76 to 100%; under setting [8], 51 to 75%.

With `Nc1nc(OCc2cnc(Cl)s2)ncc1F` [Compound 429], the pest or weed control at 25 ppm was in the range of 76 to 100% under setting [1] and 76 to 100% under setting [3]. Besides, the pest or weed control at 100 ppm was 76 to 100% under setting [2] and 76 to 100% under setting [4].

For `Cc1ccc(COc2ncc(F)c(NNc3ccc(Br)cc3)n2)cc1` [Compound 1030], the pest or weed control at 25 ppm reads like this: under setting [13], 0 to 25%; under setting [14], 0 to 25%; under setting [15], 0 to 25%. For the same compound, the pest or weed control at 100 ppm under setting [16] was in the range of 0 to 25%.

On to `O=CNc1nc(OCOC(=O)C2CCCC2)ncc1F` [Compound 1126], for which the pest or weed control at 25 ppm fell in the range of 76 to 100% under setting [13], 76 to 100% under setting [14] and 76 to 100% under setting [15]. Moreover, the pest or weed control at 100 ppm under setting [16] lay within 76 to 100%.

Take `COc1ccc(/C=N/Nc2nc(O)ncc2F)cc1` [Compound 960, (E)-5-Fluoro-4-(2-(4-methoxybenzylidene)hydrazinyl)pyrimidin-2(1H)-one]: the pest or weed control at 25 ppm by setting is: under setting [13], 0 to 25%; under setting [14], 0 to 25%; under setting [15], 0 to 25%. For the same compound, under setting [16], the pest or weed control at 100 ppm lay within 0 to 25%.

Turning to `N#Cc1cccc(COc2ncc(F)c(N)n2)c1` [Compound 33], the pest or weed control at 25 ppm under setting [5] was 76 to 100% and the pest or weed control at 25 ppm under setting [7] is 76 to 100%. The pest or weed control at 100 ppm reads like this: under setting [6], 76 to 100%; under setting [8], 76 to 100%.

As for `O=CNc1nc(OCc2ccccc2)ncc1F` [Compound 961, N-(2-(Benzyloxy)-5-fluoropyrimidin-4-yl)formamide], the pest or weed control at 25 ppm fell in the range of 76 to 100% under setting [13], 76 to 100% under setting [14] and 76 to 100% under setting [15]. In addition, the pest or weed control at 100 ppm under setting [16] lay within 76 to 100%.

With `CCOC(=O)Oc1ncc(F)c(/N=C/N(C)C)n1` [Compound 26, Carbonic acid 4-(dimethylamino-methyleneamino)-5-fluoropyrimidin-2-yl ester ethyl ester], the pest or weed control at 25 ppm under setting [5] lay within 76 to 100% and the pest or weed control at 25 ppm under setting [7] fell in the range of 76 to 100%. In addition, the pest or weed control at 100 ppm was in the range of 76 to 100% under setting [6] and 76 to 100% under setting [8].

Turning to `Cn1nc(-c2ccccc2)nc1-c1ccccc1COc1ncc(F)c(N)n1` [Compound 320], the pest or weed control at 25 ppm was 0 to 25% under setting [1] and 26 to 50% under setting [3]. In addition, the pest or weed control at 100 ppm lay within 0 to 25% under setting [2] and 26 to 50% under setting [4].
